Results reported in US6358885B1, “Substituted phenylheterocyclic herbicides” (Mississippi State University, priority 1992, dated 2002).

What was measured:
Experiment in all cases: Test B preemergence/postemergence greenhouse plant response rating 0 to 10
crabgrass = type: in vivo, Digitaria spp.; settings: for Plant response rating, Crabgrass: 0 to 10 scale
Outline: (§1)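 Postemergence treatment of plants two to eighteen cm tall ran alongside preemergence treatment of planted seed, each using compound in a non-phytotoxic solvent.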

velvetleaf = type: in vivo, Abutilon theophrasti; settings: for Plant response rating, Velvetleaf: 0 to 10 scale
Outline: as §1

soybean = type: in vivo, Glycine max; settings: for Plant response rating, Soybean: 0 to 10 scale
Outline: as §1

giant foxtail = type: in vivo, Setaria faberii; settings: for Plant response rating, Giant foxtail: 0 to 10 scale
Outline: as §1

bedstraw = type: in vivo, Galium aparine; settings: for Plant response rating, Bedstraw: 0 to 10 scale
Outline: as §1

lambsquarters = type: in vivo, Chenopodium album; settings: for Plant response rating, Lambsquarter: 0 to 10 scale
Outline: as §1

cheatgrass = type: in vivo, Bromus secalinus; settings: for Plant response rating, Cheatgrass: 0 to 10 scale
Outline: as §1

rice = type: in vivo, Oryza sativa; settings: for Plant response rating, Rice: 0 to 10 scale
Outline: as §1

purple nutsedge = type: in vivo, Cyperus rotundus; settings: for Plant response rating, Nutsedge: 0 to 10 scale
Outline: as §1

rape = type: in vivo, Brassica napus; settings: for Plant response rating, Rape: 0 to 10 scale
Outline: as §1

sugar beet = type: in vivo, Beta vulgaris; settings: for Plant response rating, Sugar beet: 0 to 10 scale
Outline: as §1

cocklebur = type: in vivo, Xanthium pensylvanicum; settings: for Plant response rating, Cocklebur: Rate 50 g/ha, 0 to 10 scale
Outline: as §1

cotton = type: in vivo, Gossypium hirsutum; settings: for Plant response rating, Cotton: 0 to 10 scale
Outline: as §1

chickweed = type: in vivo, Stellaria media; settings: for Plant response rating, Chickweed: 0 to 10 scale
Outline: as §1

sorghum = type: in vivo, Sorghum bicolor; settings: for Plant response rating, Sorghum: 0 to 10 scale
Outline: as §1

corn = type: in vivo, Zea mays; settings: for Plant response rating, Corn: 0 to 10 scale
Outline: as §1

wheat = type: in vivo, Triticum aestivum; settings: for Plant response rating, Wheat: 0 to 10 scale
Outline: as §1

wild oat = type: in vivo, Avena fatua; settings: for Plant response rating, Wild oat: 0 to 10 scale
Outline: as §1

morningglory = type: in vivo, Ipomoea hederacea; settings: for Plant response rating, Morningglory: 0 to 10 scale
Outline: as §1

blackgrass = type: in vivo, Alopecurus myosuroides; settings: for Plant response rating, Blackgrass: 0 to 10 scale
Outline: as §1

barley = type: in vivo, Hordeum vulgare; settings: for Plant response rating, Barley: 0 to 10 scale
Outline: as §1

barnyardgrass = type: in vivo, Echinochloa crus-galli; settings: for Plant response rating, Barnyardgrass: 0 to 10 scale
Outline: as §1

wild buckwheat = type: in vivo, Polygonum convolvulus; settings: for Plant response rating, Wild buckwheat: 0 to 10 scale
Outline: as §1

## FCCCOc1cc(-c2nn3c(c2Cl)CCCC3)c(F)cc1Cl [Compound 79]
crabgrass; POSTEMERGENCE, Rate 50 g/ha
  Plant response rating, Crabgrass: 3
crabgrass; PREEMERGENCE, Rate 50 g/ha
  Plant response rating, Crabgrass: 4
crabgrass; PREEMERGENCE, Rate 200 g/ha
  Plant response rating (0 to 10 scale), Crabgrass: 6
crabgrass; Rate 200 g/ha, POSTEMERGENCE
  Plant response rating, Crabgrass: 5
velvetleaf; POSTEMERGENCE, Rate 50 g/ha
  Plant response rating, Velvetleaf: 8
velvetleaf; PREEMERGENCE, Rate 50 g/ha
  Plant response rating, Velvetleaf: 5
velvetleaf; PREEMERGENCE, Rate 200 g/ha
  Plant response rating (0 to 10 scale), Velvetleaf: 10
velvetleaf; Rate 200 g/ha, POSTEMERGENCE
  Plant response rating, Velvetleaf: 10
soybean; POSTEMERGENCE, Rate 50 g/ha
  Plant response rating, Soybean: 7
soybean; PREEMERGENCE, Rate 50 g/ha
  Plant response rating, Soybean: 0
soybean; PREEMERGENCE, Rate 200 g/ha
  Plant response rating (0 to 10 scale), Soybean: 0
soybean; Rate 200 g/ha, POSTEMERGENCE
  Plant response rating, Soybean: 8
Giant foxtail; POSTEMERGENCE, Rate 50 g/ha
  Plant response rating, Giant foxtail: 4
Giant foxtail; PREEMERGENCE, Rate 50 g/ha
  Plant response rating, Giant foxtail: 3
Giant foxtail; PREEMERGENCE, Rate 200 g/ha
  Plant response rating (0 to 10 scale), Giant foxtail: 9
Giant foxtail; Rate 200 g/ha, POSTEMERGENCE
  Plant response rating, Giant foxtail: 6
bedstraw; POSTEMERGENCE, Rate 50 g/ha
  Plant response rating, Bedstraw: 5
bedstraw; PREEMERGENCE, Rate 50 g/ha
  Plant response rating, Bedstraw: 2
bedstraw; PREEMERGENCE, Rate 200 g/ha
  Plant response rating (0 to 10 scale), Bedstraw: 7
bedstraw; Rate 200 g/ha, POSTEMERGENCE
  Plant response rating, Bedstraw: 7
lambsquarters; POSTEMERGENCE, Rate 50 g/ha
  Plant response rating, Lambsquarter: 9
lambsquarters; PREEMERGENCE, Rate 50 g/ha
  Plant response rating, Lambsquarter: 9
lambsquarters; PREEMERGENCE, Rate 200 g/ha
  Plant response rating (0 to 10 scale), Lambsquarter: 10
lambsquarters; Rate 200 g/ha, POSTEMERGENCE
  Plant response rating, Lambsquarter: 10
cheatgrass; POSTEMERGENCE, Rate 50 g/ha
  Plant response rating, Cheatgrass: 3
cheatgrass; PREEMERGENCE, Rate 50 g/ha
  Plant response rating, Cheatgrass: 2
cheatgrass; PREEMERGENCE, Rate 200 g/ha
  Plant response rating (0 to 10 scale), Cheatgrass: 4
cheatgrass; Rate 200 g/ha, POSTEMERGENCE
  Plant response rating, Cheatgrass: 4
rice; POSTEMERGENCE, Rate 50 g/ha
  Plant response rating, Rice: 5
rice; PREEMERGENCE, Rate 50 g/ha
  Plant response rating, Rice: 0
rice; PREEMERGENCE, Rate 200 g/ha
  Plant response rating (0 to 10 scale), Rice: 0
rice; Rate 200 g/ha, POSTEMERGENCE
  Plant response rating, Rice: 6
Purple nutsedge; POSTEMERGENCE, Rate 50 g/ha
  Plant response rating, Nutsedge: 0
Purple nutsedge; PREEMERGENCE, Rate 50 g/ha
  Plant response rating, Nutsedge: 0
Purple nutsedge; PREEMERGENCE, Rate 200 g/ha
  Plant response rating (0 to 10 scale), Nutsedge: 0
Purple nutsedge; Rate 200 g/ha, POSTEMERGENCE
  Plant response rating, Nutsedge: 0
rape; POSTEMERGENCE, Rate 50 g/ha
  Plant response rating, Rape: 8
rape; PREEMERGENCE, Rate 50 g/ha
  Plant response rating, Rape: 3
rape; PREEMERGENCE, Rate 200 g/ha
  Plant response rating (0 to 10 scale), Rape: 6
rape; Rate 200 g/ha, POSTEMERGENCE
  Plant response rating, Rape: 9
Sugar beet; POSTEMERGENCE, Rate 50 g/ha
  Plant response rating, Sugar beet: 10
Sugar beet; PREEMERGENCE, Rate 50 g/ha
  Plant response rating, Sugar beet: 9
Sugar beet; PREEMERGENCE, Rate 200 g/ha
  Plant response rating (0 to 10 scale), Sugar beet: 10
Sugar beet; Rate 200 g/ha, POSTEMERGENCE
  Plant response rating, Sugar beet: 10
cocklebur; POSTEMERGENCE
  Plant response rating, Cocklebur: 8
cocklebur; PREEMERGENCE
  Plant response rating, Cocklebur: 0
cocklebur; PREEMERGENCE, Rate 200 g/ha
  Plant response rating (0 to 10 scale), Cocklebur: 6
cotton; POSTEMERGENCE, Rate 50 g/ha
  Plant response rating, Cotton: 10
cotton; PREEMERGENCE, Rate 50 g/ha
  Plant response rating, Cotton: 0
cotton; PREEMERGENCE, Rate 200 g/ha
  Plant response rating (0 to 10 scale), Cotton: 0
cotton; Rate 200 g/ha, POSTEMERGENCE
  Plant response rating, Cotton: 10
chickweed; POSTEMERGENCE, Rate 50 g/ha
  Plant response rating, Chickweed: 4
chickweed; PREEMERGENCE, Rate 50 g/ha
  Plant response rating, Chickweed: 0
chickweed; PREEMERGENCE, Rate 200 g/ha
  Plant response rating (0 to 10 scale), Chickweed: 3
chickweed; Rate 200 g/ha, POSTEMERGENCE
  Plant response rating, Chickweed: 5
sorghum; POSTEMERGENCE, Rate 50 g/ha
  Plant response rating, Sorghum: 6
sorghum; PREEMERGENCE, Rate 50 g/ha
  Plant response rating, Sorghum: 0
sorghum; PREEMERGENCE, Rate 200 g/ha
  Plant response rating (0 to 10 scale), Sorghum: 0
sorghum; Rate 200 g/ha, POSTEMERGENCE
  Plant response rating, Sorghum: 7
corn; POSTEMERGENCE, Rate 50 g/ha
  Plant response rating, Corn: 3
corn; PREEMERGENCE, Rate 50 g/ha
  Plant response rating, Corn: 0
corn; PREEMERGENCE, Rate 200 g/ha
  Plant response rating (0 to 10 scale), Corn: 0
corn; Rate 200 g/ha, POSTEMERGENCE
  Plant response rating, Corn: 5
wheat; POSTEMERGENCE, Rate 50 g/ha
  Plant response rating, Wheat: 5
wheat; PREEMERGENCE, Rate 50 g/ha
  Plant response rating, Wheat: 0
wheat; PREEMERGENCE, Rate 200 g/ha
  Plant response rating (0 to 10 scale), Wheat: 2
wheat; Rate 200 g/ha, POSTEMERGENCE
  Plant response rating, Wheat: 6
Wild oat; POSTEMERGENCE, Rate 50 g/ha
  Plant response rating, Wild oat: 4
Wild oat; PREEMERGENCE, Rate 50 g/ha
  Plant response rating, Wild oat: 3
Wild oat; PREEMERGENCE, Rate 200 g/ha
  Plant response rating (0 to 10 scale), Wild oat: 6
Wild oat; Rate 200 g/ha, POSTEMERGENCE
  Plant response rating, Wild oat: 5
morningglory; POSTEMERGENCE, Rate 50 g/ha
  Plant response rating, Morningglory: 10
morningglory; PREEMERGENCE, Rate 50 g/ha
  Plant response rating, Morningglory: 0
morningglory; PREEMERGENCE, Rate 200 g/ha
  Plant response rating (0 to 10 scale), Morningglory: 7
morningglory; Rate 200 g/ha, POSTEMERGENCE
  Plant response rating, Morningglory: 10
blackgrass; POSTEMERGENCE, Rate 50 g/ha
  Plant response rating, Blackgrass: 3
blackgrass; PREEMERGENCE, Rate 50 g/ha
  Plant response rating, Blackgrass: 1
blackgrass; PREEMERGENCE, Rate 200 g/ha
  Plant response rating (0 to 10 scale), Blackgrass: 5
blackgrass; Rate 200 g/ha, POSTEMERGENCE
  Plant response rating, Blackgrass: 5
barley; POSTEMERGENCE, Rate 50 g/ha
  Plant response rating, Barley: 4
barley; PREEMERGENCE, Rate 50 g/ha
  Plant response rating, Barley: 0
barley; PREEMERGENCE, Rate 200 g/ha
  Plant response rating (0 to 10 scale), Barley: 2
barley; Rate 200 g/ha, POSTEMERGENCE
  Plant response rating, Barley: 4
barnyardgrass; POSTEMERGENCE, Rate 50 g/ha
  Plant response rating, Barnyardgrass: 4
barnyardgrass; PREEMERGENCE, Rate 50 g/ha
  Plant response rating, Barnyardgrass: 3
barnyardgrass; PREEMERGENCE, Rate 200 g/ha
  Plant response rating (0 to 10 scale), Barnyardgrass: 6
barnyardgrass; Rate 200 g/ha, POSTEMERGENCE
  Plant response rating, Barnyardgrass: 7
Wild buckwheat; POSTEMERGENCE, Rate 50 g/ha
  Plant response rating, Wild buckwheat: 10
Wild buckwheat; PREEMERGENCE, Rate 50 g/ha
  Plant response rating, Wild buckwheat: 0
Wild buckwheat; PREEMERGENCE, Rate 200 g/ha
  Plant response rating (0 to 10 scale), Wild buckwheat: 9
Wild buckwheat; Rate 200 g/ha, POSTEMERGENCE
  Plant response rating, Wild buckwheat: 10
